Source: ChEMBL document CHEMBL3046528, “Pharmacophore-based 3D-QSAR study of fungal chitin synthase inhibitors” (Med Chem Res, 2013)

Molecular target: Chitin synthase (Candida albicans, UniProt P30572+P23316+P30573)
Assay: Inhibition of Candida albicans chitin synthase
Assay type: protein assay

Row | SMILES | pIC50
1 | CCCN(C/C=C/C#CC(C)(C)C)c1cccc2c1CCC(=O)N2 | 5.679
2 | CN(Cc1ccc(C#CC(C)(C)C)cc1)c1cccc2c1CCC(=O)N2 | 4.681
3 | CN(CC#CC#CC(C)(C)C)c1cccc2c1CCC(=O)N2 | 6.323
4 | CN(CC#CC#CC(C)(C)C)c1cccc2c1CC(O)C(=O)N2 (configuration not stated) | 5.015
5 | CCN(C/C=C/C#CC(C)(C)C)c1cccc2c1CCC(=O)N2 | 5.538
6 | CN(C/C=C/C#CC(C)(C)C)c1cccc2c1CCC(=O)N2 | 5.029
7 | CCC#CC#CCN(C)c1cccc2c1CCC(=O)N2 | 4.529
8 | CC(C)(C)C#C/C=C/CNc1cccc2c1CCC(=O)N2 | 3.6
9 | CC(C)N(C/C=C/C#CC(C)(C)C)c1cccc2c1CCC(=O)N2 | 5.421

More lines, now with the values ahead:

Row | pIC50 | SMILES
10 | 3.839 | CC(C)(C)C#C/C=C/CN(Cc1ccccc1)c1cccc2c1CCC(=O)N2
11 | 5.769 | CCOP(=O)(OCC)OC1Cc2c(cccc2N(C)CC#CC#CC(C)(C)C)NC1=O (configuration not stated)
12 | 5.506 | CCCCCN(C/C=C/C#CC(C)(C)C)c1cccc2c1CCC(=O)N2
13 | 4.422 | CC(C)[C@H](N)C(=O)OC1Cc2c(cccc2N(C)CC#CC#CC(C)(C)C)NC1=O (some centres not stated)
14 | 5.985 | CCCCN(C/C=C/C#CC(C)(C)C)c1cccc2c1CCC(=O)N2
15 | 4.401 | CN(CC#CC#CC(C)(C)C)c1cccc2c1CC(N)C(=O)N2 (configuration not stated)
16 | 4.523 | CN(CCCC#CC(C)(C)C)c1cccc2c1CCC(=O)N2
17 | 3.143 | CN(CC#CC#CC(C)(C)O)c1cccc2c1CCC(=O)N2

Molecular target: T1, Chitin synthase 3 (Saccharomyces cerevisiae S288c, UniProt P29465)
T1 sequence (P29465 whole entry): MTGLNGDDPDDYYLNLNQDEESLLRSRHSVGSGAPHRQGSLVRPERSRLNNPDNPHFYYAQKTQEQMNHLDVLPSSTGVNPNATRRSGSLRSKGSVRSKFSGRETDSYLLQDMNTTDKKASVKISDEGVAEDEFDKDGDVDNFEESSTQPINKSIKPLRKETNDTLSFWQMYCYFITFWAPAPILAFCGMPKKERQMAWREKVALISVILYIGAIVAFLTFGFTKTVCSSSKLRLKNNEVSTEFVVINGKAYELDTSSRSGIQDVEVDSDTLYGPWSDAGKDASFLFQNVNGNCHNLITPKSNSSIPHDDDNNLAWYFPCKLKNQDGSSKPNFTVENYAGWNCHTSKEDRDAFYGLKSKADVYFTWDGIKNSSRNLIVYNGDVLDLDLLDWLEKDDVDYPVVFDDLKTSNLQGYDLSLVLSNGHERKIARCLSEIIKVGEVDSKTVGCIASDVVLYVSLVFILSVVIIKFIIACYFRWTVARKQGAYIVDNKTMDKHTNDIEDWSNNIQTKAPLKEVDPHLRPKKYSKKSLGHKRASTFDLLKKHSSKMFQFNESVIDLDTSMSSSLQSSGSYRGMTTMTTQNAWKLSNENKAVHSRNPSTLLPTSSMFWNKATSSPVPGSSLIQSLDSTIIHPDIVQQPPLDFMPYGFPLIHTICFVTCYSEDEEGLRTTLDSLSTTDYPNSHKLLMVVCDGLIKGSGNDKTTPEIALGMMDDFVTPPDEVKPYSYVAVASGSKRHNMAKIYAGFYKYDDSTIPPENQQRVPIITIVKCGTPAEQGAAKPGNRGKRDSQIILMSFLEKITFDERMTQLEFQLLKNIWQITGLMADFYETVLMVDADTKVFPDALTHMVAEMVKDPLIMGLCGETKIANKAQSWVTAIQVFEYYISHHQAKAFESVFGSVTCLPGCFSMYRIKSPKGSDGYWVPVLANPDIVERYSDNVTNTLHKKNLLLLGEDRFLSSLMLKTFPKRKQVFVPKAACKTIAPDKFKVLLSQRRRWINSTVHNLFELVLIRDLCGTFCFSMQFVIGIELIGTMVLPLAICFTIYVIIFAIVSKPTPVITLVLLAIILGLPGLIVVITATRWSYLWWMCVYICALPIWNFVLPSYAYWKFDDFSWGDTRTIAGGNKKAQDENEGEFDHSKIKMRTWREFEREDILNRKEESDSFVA
Assay: Inhibition of Saccharomyces cerevisiae chitin synthase

Row | IC50 | SMILES
18 | 824 µM | O=C(/C=C/c1ccco1)c1ccc(Cl)cc1Cl
19 | 372 µM | COc1ccc(/C=C/C(=O)c2ccccc2)c(OC)c1
20 | 372 µM | COc1ccc(/C=C/C(=O)c2ccccc2)cc1OC
21 | 94.2 µM | O=C(/C=C/c1ccc2ccccc2c1)c1ccccc1
22 | 298 µM | COc1cccc(/C=C/C(=O)c2ccccc2)c1OC
